Source: patent US12396961B2, “Compounds and compositions for intracellular delivery of agents” (ModernaTX, Inc., priority 2015, dated 2025)
Entries after “also recorded” stand apart in the source; their conditions may differ.

How the values were obtained:
[1] = Encapsulation efficiency of RNA (QUANT-IT RIBOGREEN RNA assay); format: physicochemical
From the text: The efficiency of encapsulation of a therapeutic and/or prophylactic agent describes the amount of therapeutic and/or prophylactic agent that is encapsulated or otherwise associated with a nanoparticle composition after preparation, relative to the initial amount provided. The encapsulation efficiency is desirably high (e.g., close to 100%). The encapsulation efficiency may be measured, for example, by comparing the amount of therapeutic and/or prophylactic agent in a solution containing the nanoparticle composition before and after breaking up the nanoparticle composition with one or more organic solvents or detergents. Fluorescence may be used to measure the amount of free therapeutic and/or prophylactic agent (e.g., RNA) in a solution. […]
For nanoparticle compositions including an RNA, a QUANT-IT™ RIBOGREEN® RNA assay (Invitrogen Corporation Carlsbad, CA) can be used to evaluate the encapsulation of an RNA by the nanoparticle composition. […] The fluorescence intensity can be measured using a fluorescence plate reader (Wallac Victor 1420 Multilablel Counter; Perkin Elmer, Waltham, MA) at an excitation wavelength of, for example, about 480 nm and an emission wavelength of, for example, about 520 nm. […]

[2] = tested on: luciferase (Luc) mRNA expression; experiment: Expression of Luc, bioluminescence (total flux) after intravenous administration to mice; format: in vivo
Method: In order to monitor how effectively various nanoparticle compositions deliver therapeutic and/or prophylactic agents to targeted cells, different nanoparticle compositions including a particular therapeutic and/or prophylactic agent (for example, a modified or naturally occurring RNA such as an mRNA) are prepared and administered to rodent populations. Mice are intravenously, intramuscularly, intraarterially, or intratumorally administered a single dose including a nanoparticle composition with a formulation such as those provided in Table 1. In some instances, mice may be made to inhale doses. Dose sizes may range from 0.001 mg/kg to 10 mg/kg, where 10 mg/kg describes a dose including 10 mg of a therapeutic and/or prophylactic agent in a nanoparticle composition for each 1 kg of body mass of the mouse. A control composition including PBS may also be employed.
Upon administration of nanoparticle compositions to mice, dose delivery profiles, dose responses, and toxicity of particular formulations and doses thereof can be measured by enzyme-linked immunosorbent assays (ELISA), bioluminescent imaging, or other methods. For nanoparticle compositions including mRNA, time courses of protein expression can also be evaluated. Samples collected from the rodents for evaluation may include blood, sera, and tissue (for example, muscle tissue from the site of an intramuscular injection and internal tissue); sample collection may involve sacrifice of the animals.
The efficacy of the nanoparticle compositions presented in Tables 1, la, 17-1, 19-1, 20-1 and 21-1 was evaluated with a bioluminescence study. Formulations were administered intravenously to mice (n=6) at a dosage of 0.5 mg/kg (mpk) and bioluminescence measured at 3, 6, and 24 hour time points. The standard MC3 formulation and a PBS control were evaluated for comparison.

rats = experiment: Tolerability / toxicity in rats dosed i.v. with hEPO mRNA LNP; format: in vivo; details: 2 mg/kg dose
hEPO mRNA expression = experiment: Expression of hEPO after intravenous administration to rats; format: in vivo; details: for hEPO (pg/mL) 3 hours / hEPO (pg/mL) 6 hours / hEPO (pg/mL) 24 hours: Table 6, rats i.v. 0.2 or 0.5 mg/kg; for hEPO expression in rats (FIG. 8): 2 mpk, i.v. (Graph A), in words
Method: PBS (phosphate buffered saline) is used as control.
Formulations were prepared according to Table 5 and included mRNA encoding hEPO.
[…] After the 48 hour time point, livers and spleens were harvested and frozen.

[3] = Particle size and polydispersity index (Zetasizer Nano ZS); format: physicochemical; details: for PDI: DOPE 40:20:38.5:1.5, Luc mRNA
Outline: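 Particle size and polydispersity index were measured by dynamic light scattering on a Zetasizer Nano ZS in 1×PBS. Zeta potential was measured in 15 mM PBS.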

[4] = tested on: LDLr mRNA / Luc expression; experiment: Expression (AUC) in LDLr−/− mice relative to KL22; format: in vivo; details: Table 7b
[5] = Lipid levels (clearance) in liver and spleen 48 hours after administration; format: in vivo, rats; details: rat liver, 48 h
Method: Formulations were administered intravenously to rats (n=3 or 6) at a dosage of 0.2 mg/kg or 0.5 mg/kg (mpk) and hEPO levels measured at 3, 6, and 24 hour time points. After the 48 hour time point, livers and spleens were harvested and frozen.
The amount of lipid in the liver and spleen 48 hours after administration of a nanoparticle composition was also measured. […] In contrast, approximately 60% of doses including MC3 or Compound 22 remained in the liver after 48 hours. Less than 3% of the dose remained in the spleen for each composition tested.

[6] = tested on: GFP mRNA expression in liver cells; experiment: Mouse liver immunohistochemistry (IHC) of GFP after GFP mRNA LNP; format: in vivo, CD-1 mouse; LDLR knockout mouse; details: i.v. 0.5 mpk; MC3: CD-1 mouse, 6h; Compound 4: LDLR knockout mouse, 8h
Method: FIG. 11 is a pair of images comparing the results of a mouse liver immunohistochemistry (IHC) using mRNA expressing green fluorescent protein (GFP) after administration of nanoparticle compositions containing Compound 4 and MC3.
FIG. 16 is a graph showing GFP levels in the livers of LDLR knockout mice at 30 min to 24 h after intravenous administration of an eGFP RNA in a lipid composition containing Compound 4. The liver GFP levels were determined via IHC. The square markers represent the number of GFP positive cells following administration of a dose of 0.1 mpk of the composition. The circular markers represent the number of GFP positive cells following administration of a dose of 0.5 mpk of the composition.

[7] = tested on: luciferase (Luc) mRNA expression; experiment: Luc expression (AUC) in CD-1 mice relative to MC3; format: in vivo; details: for Lipid/MC3 Luc CD-1 (mice): Luc expression relative to MC3, CD-1 mice
Outline: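 CD-1 mice dosed at 0.5 mpk with nanoparticle compositions carrying luciferase mRNA; total light flux acquired by whole-body luminescent imaging 6 h after administration. Expression referenced to MC3-containing composition.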

[8] = tested on: luciferase (Luc) mRNA expression; experiment: Expression of Luc in different organs (liver, lung, spleen, femur) 6 hours after intravenous administration; format: in vivo; details: mice i.v. 0.5 mpk, 0.5 mg/kg
Method: The efficacy of the nanoparticle compositions presented in Tables 1, la, 17-1, 19-1, 20-1 and 21-1 was further evaluated by measuring the expression of modified luciferase in the liver, lung, spleen, and femur upon administration of a given composition. Formulations were administered intravenously to mice (n=3) at a dosage of 0.5 mpk and bioluminescence measured after 6 hours. The standard MC3 formulation and a PBS control were also tested.

LDL-c = experiment: LDL (LDL-c) levels in LDLr−/− mice after mRNA encoding the LDL receptor; format: in vivo, LDLR knockout mice; details: Compound 11 at 0.5 and 1 mpk

CCCCCCCCCCCCN(CCCCCCCCCCCC)CCN1CCN(C(=O)CN(CCCCCCCCCCCC)CCN(CCCCCCCCCCCC)CCCCCCCCCCCC)CC1 [Compound 2, 2-((2-(Didodecylamino)ethyl)(dodecyl)amino)-1-(4-(2-(didodecylamino)ethyl)piperazin-1-yl)ethan-1-one]
EE (%) ([1]; Table 1, marked *: lipid:DSPC:Chol:PEG-DMG 50:10:38.5:1.5): 96%

CCCCCCCCCCCCN(CCCCCCCCCCCC)CCN(CCCCCCCCCCCC)CCN1CCN(CCN(CCCCCCCCC)CCCCCCCCC)CC1 [Compound 23, N^1-(2-(4-(2-(Dinonylamino)ethyl)piperazin-1-yl)ethyl)-N^1,N^2,N^2 tridodecylethane-1,2-diamine]
Luc expression in mice compared with MC3 (Table 7a) ([2]; mice, in words): several fold higher
Tolerability / toxicity in rats (FIG. 8) (rats): toxic
hEPO (pg/mL) 3 hours (hEPO mRNA expression; DOPE formulation of Table 5): 249213 pg/mL
hEPO (pg/mL) 6 hours (hEPO mRNA expression; DOPE formulation of Table 5): 275440 pg/mL
hEPO (pg/mL) 24 hours (hEPO mRNA expression; DOPE formulation of Table 5): 120104 pg/mL
hEPO (pg/mL) 3 hours (hEPO mRNA expression; DSPC formulation of Table 5): 86627 pg/mL
hEPO (pg/mL) 6 hours (hEPO mRNA expression; DSPC formulation of Table 5): 71360 pg/mL
hEPO (pg/mL) 24 hours (hEPO mRNA expression; DSPC formulation of Table 5): 29008 pg/mL
PDI ([3]; Table 1): 0.058

CCCCCC=CCC=CCCCCCCCCC(CCCCCCCCC=CCC=CCCCCC)OC(=O)CCCN(C)C (centres unmarked) [MC3, heptatriaconta-6,9,28,31-tetraen-19-yl 4-(dimethylamino)butanoate, reference compound]
Lipid/KL22 AUC LDLr−/− mice 0.5 mpk, LDLr [4]: 0.15
% dose remaining Rat liver (48 h) [5]: 43.11%
Total flux (Luc expression), comparison in words over the time points of the table named ([2]; mice i.v. 0.5 mg/kg, 3, 6, 24 hours, 0.5 mg/kg): highest total flux; also recorded: highest luciferase expression
GFP protein expression in liver cell types (IHC, FIG. 11) [6]: observed in both hepatocytes and Kupffer cells
Lipid/MC3 Luc CD-1 (mice) [7]: 1
Lipid/MC3 AUC CD-1 mice 0.5 mpk ([7]; Table 7b, Luc expression, CD-1 mice, 0.5 mpk): 1
hEPO expression at each time point, comparison in words (Table 6) (hEPO mRNA expression; rats i.v., 3, 6, 24 hours): highest hEPO expression
Total flux in organs, comparison in words over the organs of the table named [8]: highest total flux; also recorded: highest expression in each organ
Size (nm) ([3]; Table 20-1): 84.0 nm

CCCCCCCCCCCCN(CCCCCCCCCCCC)CCN(CCCCCCCCCCCC)CC(=O)N1CCN(C(=O)CN(CCCCCCCCCCCC)CCCCCCCCCCCC)CC1 [Compound 11, 2-(Didodecylamino)-1-(4-(N-(2-(didodecylamino)ethyl)-N-dodecylglycyl)piperazin-1-yl)ethan-1-one]
LDL-c levels in LDLR knockout mice (FIG. 9B) (LDL-c): found to drop
Tolerability / toxicity in rats (FIG. 8) (rats): improved tolerability as compared to KL22
Lipid/MC3 Luc CD-1 (mice) [7]: 1.03
hEPO expression in rats (FIG. 8) (hEPO mRNA expression): comparable to MC3
PDI ([3]; Table 1): 0.099

CCCCCCCCCCCCN(CCCCCCCCCCCC)CCN(CCCCCCCCCCCC)CCN1CCN(CCN(CCCCCCCCCCCC)CCCCCCCCCCCC)CC1 [KL22, N1-[2-(didodecylamino)ethyl]-N1,N4,N4-tridodecyl-1,4-piperazinediethanamine, reference compound]
Lipid/KL22 AUC LDLr−/− mice 0.5 mpk, LDLr [4]: 1
Tolerability / toxicity in rats (FIG. 8) (rats): toxic
hEPO expression in rats (FIG. 8) (hEPO mRNA expression): do not express hEPO in rats

CCCCC/C=C\CCCCCN(CCCCC/C=C\CCCCC)CCN1CCN(CCN(CCCCCCCCCCCC)CCN(CCCCCCCCCCCC)CCCCCCCCCCCC)CC1 [Compound 25, N^1-(2-(4-(2-(Di((Z)-dodec-6-en-1-yl)amino)ethyl)piperazin-1-yl)ethyl)-N^1,N^2,N^2-tridodecylethane-1,2-diamine]
EE (%) ([1]; Table 1, DOPE 40:20:38.5:1.5, Luc mRNA): 97.0%
Size (nm) ([3]; Table 1, lipid:DOPE:Chol:PEG-DMG 40:20:38.5:1.5, Luc mRNA, MC3 standard formulation): 90.0 nm
